ChEMBL document CHEMBL4028861, “Selective Nonsteroidal Glucocorticoid Receptor Modulators for the Inhaled Treatment of Pulmonary Diseases” (J Med Chem, 2017)

Legend:
[1] = Intrinsic clearance in human hepatocytes assessed per million cells; type: ADME, cell-based, Hepatocyte; conditions: read-out: CLH
[2] = Lipophilicity, log D of the compound by chromatography; type: physicochemical
[3] = Intrinsic clearance in Wistar Han rat hepatocytes assessed per 10^6 cells; type: ADME, cell-based, Hepatocyte; conditions: read-out: CLH
[4] = Clearance in Wistar Han rat at 1 umol/kg, iv administered as bolus dose by LC-MS/MS analysis; type: ADME, organism-based; conditions: in vivo
[5] = Volume of distribution at steady state in Wistar Han rat at 1 umol/kg, iv administered as bolus dose by LC-MS/MS analysis; type: ADME, organism-based; conditions: in vivo, read-out: Vdss
[6] = Terminal half life in Wistar Han rat 1 umol/kg, iv administered as bolus dose by LC-MS/MS analysis; type: ADME, organism-based; conditions: in vivo, read-out: beta t1/2 (converted)
[7] = Oral bioavailability in Wistar Han rat administered via gavage by LC-MS/MS analysis; type: ADME, organism-based; conditions: in vivo
[8] = test system: Lung; test: Drug uptake in Wistar Han rat lung at 0.1 umol/kg, administered via intratracheal instillation after 4 hrs by LC-MS/MS analysis; type: ADME, tissue-based; conditions: in vivo, inhaled_or_intranasal
[9] = test system: Lung; test: Drug uptake in Wistar Han rat lung at 0.1 umol/kg, administered via intratracheal instillation after 24 hrs by LC-MS/MS analysis; type: ADME, tissue-based; conditions: in vivo, inhaled_or_intranasal
[10] = AUC (0 to infinity) in Wistar Han rat lung at 0.1 umol/kg, administered via intratracheal instillation by LC-MS/MS analysis; type: ADME, tissue-based; parameters: dose 0.1 umol/kg, time infinity; conditions: inhaled or intranasal
[11] = Apparent terminal half life in Wistar Han rat lung at 0.1 umol/kg, administered via intratracheal instillation by LC-MS/MS analysis; type: ADME, tissue-based; conditions: inhaled or intranasal, read-out: betat1/2(app) (converted)
[12] = Mean residence time in Wistar Han rat lung at 0.1 umol/kg, administered via intratracheal instillation by LC-MS/MS analysis; type: ADME, tissue-based; conditions: inhaled or intranasal
[13] = Cmax in Wistar Han rat plasma at 0.1 umol/kg, administered via intratracheal instillation by LC-MS/MS analysis; type: ADME; parameters: dose 0.1 umol/kg; conditions: inhaled or intranasal

C[C@H](NC(=O)C(C)(F)F)[C@H](Oc1ccc2c(cnn2-c2ccc(F)cc2)c1)c1ccc2c(c1)OCCO2 showed a hepatocyte CLint [1] of 28 µL/min/1e6 cells, a chromatographic logD [2] of 5.5 and a hepatocyte CLint [3] of 22 µL/min/1e6 cells. It also gave a clearance [4] of 42 mL/min/kg, a Vd [5] of 10 L/kg and a half-life [6] of 7.4 h. The bioavailability [7] was 11%, the Drug uptake [8] was 4.5 %ID and the Drug uptake [9] was 0.8 %ID. It also gave an AUC(0-inf) [10] of 12 µM·h, a half-life [11] of 8.9 h and an MRT [12] of 8.8 h. The Cmax [13] was 30 nM.
